From patent publication US20090099243A1, “ORGANIC COMPOUNDS” (priority 2007, published 2009)

Assays:
[1] = test system: ethanol self-administration in rats; details: icv administration; cited from earlier work
[2] = target: T1, recombinant human NPY Y2 receptors (Homo sapiens, UniProt P49146); experiment: Scintillation proximity [35S]GTPγS binding assay (inhibition of 0.5 nM NPY-stimulated [35S]GTPγS binding); type: biochemical; details: 10 μM compound, CHO-C4 membranes; for inhibition at 10 µM: read-out: [%] inhibiton at 10 μM
T1 construct: expressed in transfected cells; host or cells: CHO-C4 cells (membrane preparation)
T1 sequence (P49146 1-381): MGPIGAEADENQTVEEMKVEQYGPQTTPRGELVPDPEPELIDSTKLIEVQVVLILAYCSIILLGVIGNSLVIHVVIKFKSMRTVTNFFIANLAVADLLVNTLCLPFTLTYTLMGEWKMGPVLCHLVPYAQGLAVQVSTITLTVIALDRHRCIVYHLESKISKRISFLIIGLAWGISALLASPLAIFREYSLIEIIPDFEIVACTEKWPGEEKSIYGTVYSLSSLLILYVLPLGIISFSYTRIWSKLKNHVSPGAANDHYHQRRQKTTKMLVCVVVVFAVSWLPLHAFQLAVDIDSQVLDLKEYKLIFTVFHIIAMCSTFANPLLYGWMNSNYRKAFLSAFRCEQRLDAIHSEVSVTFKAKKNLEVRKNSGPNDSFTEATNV
Method: Preparation of Membranes: CHO—C4 cells expressing recombinant human NPY Y2 receptors were used to prepare membranes for the GTPγS assay. Cells were grown to 80-95% confluency on 15-cm (225 cm^2) tissue culture plates. After aspiration of the culture medium, cells were washed twice with 18 ml ice-cold phosphate-buffered saline (PBS), scraped off and suspended in 3 ml ice-cold PBS in pre-cooled centrifuge tubes. The dishes were rinsed with 2 ml ice-cold PBS per dish and the washings were combined with the PBS cell suspension from above. Cells pooled from 5-7 dishes were centrifuged for 5 min at 10,000 rpm (12,000 g) in a Sorvall RC5B centrifuge using an SS34 rotor at 4° C. The cell pellet was resuspended in 5 ml ice-cold buffer (20 mM HEPES, 10 mM EDTA; pH 7.4) by vortexing (2-5 sec), homogenized using a Polytron (step 4 for 20-30 sec), and ice-cold buffer added to 25 ml. The suspension was centrifuged again for 20 min at 18,000 rpm (39,000 g) at 4° C. and the pellet resuspended in 5 ml ice-cold buffer (20 mM HEPES, 0.1 mM EDTA; pH 7.4) by vortexing (2-5 sec), homogenized with a Polytron (step 4 for 10 sec), and ice-cold buffer added to 25 ml. The suspension was centrifuged a third time for 20 min at 18,000 rpm (39,000 g) at 4° C. The pellet was resuspend in 1 ml ice-cold buffer (20 mM Hepes, 0.1 mM EDTA; pH 7.4) by vortexing (5-8 sec). Two to five resuspended pellets were combined and homogenized using a Polytron (step 4 for 15-25 sec). A small aliquot (20-50 μl) was removed for protein determination by the Coomassie Plus Protein Assay Reagent (Pierce) using BSA as standard. The membrane suspension was aliquoted in pre-cooled (on dry ice) Eppendorf tubes (0.25-1 ml/tube affording approximately 0.5-2 mg of membrane protein/tube). The pellets were frozen and stored at −80° C.
Scintillation proximity [^35S]GTPγS binding assay: Frozen membranes from CHO—C4 cells expressing recombinant human NPY Y2 receptors (2 mg for four 96-well plates) were thawed on ice. Thawed membranes were pipetted into 10 ml of assay buffer (20 mM. HEPES, 10 mM MgCl2, 100 mM NaCl, pH 7.4) and homogenized briefly using a Polytron. The final assay mixture was prepared in 96-well microtiter plates (Isoplate Wallac, Perkin Elmer). The composition of the assay mixtures in a final volume of 250 μl per well was as follows: 20 mM HEPES, 10 mM MgCl2, 100 mM NaCl, pH 7.4, 30 μM GDP, 1 mg/ml BSA (added fresh), 5 μg membrane protein, 1.5 mg Wheatgerm agglutinin SPA beads (Amersham), 0.45 nM [^35S]GTPγS (Amersham, SJ1308, 1000 Ci/mmol, stabilized solution), and the test compounds (agonists and/or antagonists) at the appropriate concentrations. The samples were incubated at room temperature for 90 min by shaking, after which the SPA beads were sedimented by centrifugation in an Eppendorf 5804 centrifuge at 2700 rpm for 10 min at room temperature. After 60 min the plates were counted in a TopCount (Canberra). Basal [^35S]GTPγS binding was measured in the absence of agonist (NPY). Non-specific binding was measured in the presence of excess (10 μM) unlabelled GTPγS (Sigma). Nonspecific binding never exceeded 10% of basal binding and was thus not subtracted from the experimental data. Antagonists were tested for the inhibition of 0.5 nM NPY-stimulated [^35S]GTPγS binding. Antagonist inhibition curves were analyzed by non-linear regression using GraphPad Prism software (Version 4.0, GraphPad Software Inc., CA, USA).
Antagonistic activity of compounds of the present invention was examined by the Scintillation proximity [35S]GTPγS binding assay as described above (inhibition of 0.5 nM NPY-stimulated [^35S]GTPγS binding). The table below represents percentages of inhibition at a concentration of 10 μM.

[3] = test system: normal gastric emptying in mice; experiment: Normal gastric emptying in mice by Near Infrared FluoRescent (NIRF) imaging; type: in vivo, C57/BI6 mice; details: imaging 15 minutes after gavage, vehicle control 70%
Method: The effect of Example 33, (−)-1-(3,5-Dimethyl-isoxazol-4-yl)-3-{4-[2-(S)-2,5-dioxo-4-phenyl-4-propyl-imidazolidin-1-yl)-acetyl]-3-fluoro-phenyl}-urea, on normal gastric emptying in mice is assessed by means of Near Infrared FluoRescent (NIRF) imaging. The NIRF method is described in detail in the publication by Gremlich et al (J. Mol. Imaging, 2004, 3(4), 303-311). In short, C57/BI6 mice are gavaged 0.2 ml test meal (Isosource Standard meal, Novartis Medical Nutrition, Germany) that contains 7.5 g methylcellulose and 5 g Tentagel fluorescent beads (TentaGel MB-NH2, particle size […], capacity 0.2-0.3 mmol/g; Rapp Polymere, Tubingen, Germany) per 100 ml and immediately returned to their cages. 15 minutes after the gavage mice are anaesthetized using isoflurane and prepared for NIRF imaging. Images from the gastric and intestinal areas are taken and the percentage of food emptied from the stomach is calculated as the ratio of fluorescence measured in the intestines and the stomach. Example 33 was dissolved in 1-methyl-2-pyrrolidon, polyethyleenglycol-300 and 5% dextrose solution (w/v) in the following proportion (v/v): 10%, 30% and 60% respectively and injected intraperitoneally 30 minutes before the administration of the test meal. In the vehicle control group (n=6), 70% of the meal was emptied from the stomach.

## N=C(N)NCCC[C@H](NC(=O)CC1(CC(=O)N2CCN(C3c4ccccc4NC(=O)c4ccccc43)CC2)CCCC1)C(=O)NCCn1c(=O)n(-c2ccccc2)n(-c2ccccc2)c1=O (stereo partly drawn) [BIIE0246]
[1]
  effect on ethanol self-administration: dose dependently reduced ethanol self-administration

## CCC[C@@]1(c2ccccc2)NC(=O)N(CC(=O)c2ccc(NC(=O)Nc3c(C)noc3C)cc2F)C1=O [Example 33, (−)-1-(3,5-Dimethyl-isoxazol-4-yl)-3-{4-[2-((S)-2,5-dioxo-4-phenyl-4-propyl-imidazolidin-1-yl)-acetyl]-3-fluoro-phenyl}-urea]
[2]
  inhibition at 10 µM: 95%
[3]; 0.3 mg/kg intraperitoneally 30 minutes before test meal
  percentage of the meal emptied from the stomach: 80%
[3]; 1 mg/kg intraperitoneally 30 minutes before test meal
  percentage of the meal emptied from the stomach: 81%

## Cc1noc(C)c1NC(=O)Nc1ccc(C(=O)CN2C(=O)NC(c3ccccc3)(c3ccccc3)C2=O)c(F)c1 [Example 28, 1-(3,5-Dimethyl-isoxazolyl-4-yl)-3-{4-[2-(2,5-dioxo-4,4-diphenyl-imidazolidin-1-yl)-acetyl]-3-fluoro-phenyl}-urea]
[2]
  [%] inhibiton at 10 μM: 98%

## CCC1(c2ccccc2)NC(=O)N(CC(=O)c2ccc(NC(=O)CC(C)C)cc2F)C1=O (racemic) [Example 13, (±)-N-{4-[2-(4-Ethyl-2,5-dioxo-4-phenyl-imidazolidin-1-yl)-acetyl]-3-fluoro-phenyl}-3-methyl-butyramide]
[2]
  inhibition at 10 µM: 78%
